From US12545637B2, “Extrahepatic targeted cationic lipid compound with high efficiency and low toxicity and its composition” (BEIJING YOUCARE KECHUANG PHARMACEUTICAL TECHNOLOGY CO., LTD., priority 2023, dated 2026)
Where “and” joins values, the source holds several entries; their conditions need not be identical. Identical values can stand only once.

Assays:
293T cells = assay: Cell survival rate assay (CCK-8); type: cell-based; conditions: for Cell survival rate: LNP with 1.5 μg Fluc-mRNA, 24 hours, CCK-8; for cell survival rate higher than ALC-0315: difference vs ALC-0315; for cell survival rate higher than HIMA: difference vs HIMA (HHMA); for cell survival rate higher than Lipofectamine 3000: difference vs Lipofectamine 3000; for cell survival rate higher than SM-102: difference vs SM-102; for cell survival rate higher than YK-404: difference vs YK-404; for cell survival rate higher than YK-405: difference vs YK-405; for cell survival rate higher than YK-406: difference vs YK-406; for cell survival rate higher than YK-408: difference vs YK-408; for cell survival rate higher than YK-409: difference vs YK-409; for cell survival rate higher than YK-410: difference vs YK-410; for cell survival rate higher than YK-411: difference vs YK-411; for cell survival rate higher than YK-412: difference vs YK-412; for cell survival rate higher than YK-413: difference vs YK-413; for cell survival rate higher than YK-414: difference vs YK-414; for cell survival rate higher than YK-415: difference vs YK-415; for cell survival rate higher than YK-416: difference vs YK-416; for cell survival rate higher than YK-417: difference vs YK-417; for cell survival rate higher than YK-418: difference vs YK-418; for cell survival rate higher than YK-419: difference vs YK-419; for cell survival rate higher than YK-420: difference vs YK-420; for cell survival rate higher than YK-421: difference vs YK-421; for cell survival rate higher than YK-424: difference vs YK-424; for cell survival rate higher than compound 21: difference vs compound 21; for cell survival rate higher than compound 23: difference vs compound 23; for cytotoxicity reduced compared with YK-411: rounded summary statement vs YK-411
Procedure, shortened: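 293T cells seeded at 10,000 cells/well, cultured overnight, then exposed 24 h to LNP carrying 1.5 μg Fluc-mRNA (cationic:neutral:structured:PEG-type lipid 49:10:39.5:1.5) or Lipofectamine 3000. Viability read by CCK-8, 1 h incubation, absorbance at 450 nm.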

[1] = Detection of encapsulation efficiency, drug loading concentration and total RNA concentration (RiboGreen); type: physicochemical; conditions: for Drug loading concentration / Encapsulation efficiency / Total RNA concentration: LNP formulation prepared from the cationic lipid; for encapsulation efficiency higher than ALC-0315: difference vs ALC-0315; for encapsulation efficiency higher than HIMA: difference vs HIMA (HHMA); for encapsulation efficiency higher than SM-102: difference vs SM-102; for encapsulation efficiency higher than YK-009: difference vs YK-009; for encapsulation efficiency higher than compound 21: difference vs compound 21; for encapsulation efficiency higher than compound 23: difference vs compound 23; for drug loading concentration, times that of ALC-0315 / total RNA concentration, times that of ALC-0315: ratio vs ALC-0315; for drug loading concentration, times that of HIMA / total RNA concentration, times that of HIMA: ratio vs HIMA (HHMA); for drug loading concentration, times that of SM-102 / total RNA concentration, times that of SM-102: ratio vs SM-102; for drug loading concentration, times that of YK-009 / total RNA concentration, times that of YK-009: ratio vs YK-009; for drug loading concentration, times that of compound 21 / total RNA concentration, times that of compound 21: ratio vs compound 21; for drug loading concentration, times that of compound 23 / total RNA concentration, times that of compound 23: ratio vs compound 23
Procedure, shortened: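 Samples were diluted in 1×TE to about […], combined with TE and 0.1% Triton X-100 buffers, and held at 37 °C for 10 minutes before dye addition.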

CCCCCCCCC(CCCCCCCC)OC(=O)CCCCCN(CCO)CCN(CCO)CCCCCC(=O)OC(CCCCCCCC)CCCCCCCC [YK-401, di(heptadecan-9-yl) 6,6′-(ethane-1,2-diyl-bis((2-hydroxyethyl)azanediyl))dihexanoate]
Cell survival rate (293T cells): 75.21%
cell survival rate higher than ALC-0315 (293T cells): 28.00%
cell survival rate higher than HIMA (293T cells): 10.94%
cell survival rate higher than Lipofectamine 3000 (293T cells): 53.55%
cell survival rate higher than SM-102 (293T cells): 4.31% and 7.31%
cell survival rate higher than YK-404 (293T cells): 33.09%
cell survival rate higher than YK-405 (293T cells): 33.35%
cell survival rate higher than YK-406 (293T cells): 50.25%
cell survival rate higher than YK-408 (293T cells): 32.90%
cell survival rate higher than YK-409 (293T cells): 29.10%
cell survival rate higher than YK-410 (293T cells): 30.29%
cell survival rate higher than YK-411 (293T cells): 58.88%
cell survival rate higher than YK-412 (293T cells): 21.07%
cell survival rate higher than YK-413 (293T cells): 28.01%
cell survival rate higher than YK-414 (293T cells): 46.46%
cell survival rate higher than YK-415 (293T cells): 14.05%
cell survival rate higher than YK-416 (293T cells): 34.24%
cell survival rate higher than YK-417 (293T cells): 53.87%
cell survival rate higher than YK-418 (293T cells): 54.16%
cell survival rate higher than YK-419 (293T cells): 36.29%
cell survival rate higher than YK-420 (293T cells): 39.62%
cell survival rate higher than YK-421 (293T cells): 39.50%
cell survival rate higher than YK-424 (293T cells): 47.28%
cell survival rate higher than compound 21 (293T cells): 7.37%
cell survival rate higher than compound 23 (293T cells): 6.10%
cytotoxicity reduced compared with YK-411 (293T cells): 50%
Drug loading concentration [1]: 37.16 µg/mL
Encapsulation efficiency [1]: 83.6%
Total RNA concentration [1]: 41.71 µg/mL
encapsulation efficiency higher than ALC-0315 [1]: 20.3%
encapsulation efficiency higher than HIMA [1]: 23.4%
encapsulation efficiency higher than SM-102 [1]: 20.7%
encapsulation efficiency higher than YK-009 [1]: 20.2%
encapsulation efficiency higher than compound 21 [1]: 25.6%
encapsulation efficiency higher than compound 23 [1]: 27.4%
drug loading concentration, times that of ALC-0315 [1]: 1.38
total RNA concentration, times that of ALC-0315 [1]: 1.10
drug loading concentration, times that of HIMA [1]: 1.14
total RNA concentration, times that of HIMA [1]: 1.14
drug loading concentration, times that of SM-102 [1]: 1.40
total RNA concentration, times that of SM-102 [1]: 1.16
drug loading concentration, times that of YK-009 [1]: 1.35
total RNA concentration, times that of YK-009 [1]: 1.08
drug loading concentration, times that of compound 21 [1]: 1.69
total RNA concentration, times that of compound 21 [1]: 1.44
drug loading concentration, times that of compound 23 [1]: 1.86
total RNA concentration, times that of compound 23 [1]: 1.34

CCCCCCCCC(CCCCCCCC)COC(=O)CCCCCN(CCCO)CCCN(CCCO)CCCCCC(=O)OCC(CCCCCCCC)CCCCCCCC [YK-423, di(2-octyldecyl) 6,6′-(propan-1,3-diyl-bis((3-hydroxypropyl)azanediyl))dihexanoate]
Cell survival rate (293T cells): 71.14%
cell survival rate higher than ALC-0315 (293T cells): 23.93%
cell survival rate higher than HIMA (293T cells): 6.87%
cell survival rate higher than Lipofectamine 3000 (293T cells): 49.48%
cell survival rate higher than SM-102 (293T cells): 3.24%
cell survival rate higher than YK-404 (293T cells): 29.02%
cell survival rate higher than YK-405 (293T cells): 29.28%
cell survival rate higher than YK-406 (293T cells): 46.18%
cell survival rate higher than YK-408 (293T cells): 28.83%
cell survival rate higher than YK-409 (293T cells): 25.03%
cell survival rate higher than YK-410 (293T cells): 26.22%
cell survival rate higher than YK-411 (293T cells): 54.81%
cell survival rate higher than YK-412 (293T cells): 17.00%
cell survival rate higher than YK-413 (293T cells): 23.94%
cell survival rate higher than YK-414 (293T cells): 42.39%
cell survival rate higher than YK-415 (293T cells): 9.98%
cell survival rate higher than YK-416 (293T cells): 30.17%
cell survival rate higher than YK-417 (293T cells): 49.80%
cell survival rate higher than YK-418 (293T cells): 50.09%
cell survival rate higher than YK-419 (293T cells): 32.22%
cell survival rate higher than YK-420 (293T cells): 35.55%
cell survival rate higher than YK-421 (293T cells): 35.43%
cell survival rate higher than YK-424 (293T cells): 43.21%
cell survival rate higher than compound 21 (293T cells): 3.30%
cell survival rate higher than compound 23 (293T cells): 2.03%
cytotoxicity reduced compared with YK-411 (293T cells): 50%
Drug loading concentration [1]: 37.47 µg/mL
Encapsulation efficiency [1]: 89.7%
Total RNA concentration [1]: 41.00 µg/mL
encapsulation efficiency higher than ALC-0315 [1]: 26.4%
encapsulation efficiency higher than HIMA [1]: 29.5%
encapsulation efficiency higher than SM-102 [1]: 26.8%
encapsulation efficiency higher than YK-009 [1]: 26.3%
encapsulation efficiency higher than compound 21 [1]: 31.7%
encapsulation efficiency higher than compound 23 [1]: 33.5%
drug loading concentration, times that of ALC-0315 [1]: 1.39
total RNA concentration, times that of ALC-0315 [1]: 1.08
drug loading concentration, times that of HIMA [1]: 1.15
total RNA concentration, times that of HIMA [1]: 1.13
drug loading concentration, times that of SM-102 [1]: 1.41
total RNA concentration, times that of SM-102 [1]: 1.14
drug loading concentration, times that of YK-009 [1]: 1.36
total RNA concentration, times that of YK-009 [1]: 1.06
drug loading concentration, times that of compound 21 [1]: 1.71
total RNA concentration, times that of compound 21 [1]: 1.42
drug loading concentration, times that of compound 23 [1]: 1.87
total RNA concentration, times that of compound 23 [1]: 1.32
